From patent US12471596B2 (priority 2019, dated 2025)

Experiments:
Phytophthora infestans [1] = test: whole plant or invertebrate; type: in vivo, Phytophthora infestans on tomato plants; conditions: in Solanum lycopersicum, 24 h, read-out: control compared to the untreated check
Phytophthora infestans [2] = test: microbe, parasite or virus in culture; type: cell-based; conditions: in Secale cereale, 168 h, read-out: control compared to the untreated check

| Compound | pest or weed control at 50 ppm (Phytophthora infestans [1]) [%] | inhibition of growth at 30 ppm (Phytophthora infestans [2]) [%] |
| --- | --- | --- |
| O=C(COc1nccnc1C(F)(F)F)N1CCC(c2nc(C3=NOC(c4c(Cl)cccc4C(F)(F)F)C3)cs2)CC1 (centres unmarked) [Compound 4, 1-(4-(4-(5-(2-chloro-6-(trifluoromethyl)phenyl)-4,5-dihydroisoxazol-3-yl)thiazol-2-yl)piperidin-1-yl)-2-((3-(trifluoromethyl)pyrazin-2-yl)oxy)ethan-1-one] | ≥ 70 | ≥ 70 |
| O=C(COc1nccnc1C(F)(F)F)N1CCC(c2nc(C3=NOC(c4c(F)cccc4F)C3)cs2)CC1 (centres unmarked) [Compound 5, 1-(4-(4-(5-(2,6-difluorophenyl)-4,5-dihydroisoxazol-3-yl)thiazol-2-yl)piperidin-1-yl)-2-((3-(trifluoromethyl)pyrazin-2-yl)oxy)ethan-1-one] | ≥ 70 | ≥ 70 |
| CS(=O)(=O)Oc1cccc(Cl)c1C1CC(c2csc(C3CCN(C(=O)COc4nccnc4C(F)(F)F)CC3)n2)=NO1 (centres unmarked) [Compound 6, 3-chloro-2-(3-(2-(1-(2-((3-(trifluoromethyl)pyrazin-2-yl)oxy)acetyl)piperidin-4-yl)thiazol-4-yl)-4,5-dihydroisoxazol-5-yl)phenyl methanesulfonate] | ≥ 70 | ≥ 70 |
| CS(=O)(=O)Oc1cccc(Cl)c1C1CC(c2csc(C3CCN(C(=O)COc4cc(C(F)(F)F)ncn4)CC3)n2)=NO1 (centres unmarked) [Compound 7, 3-chloro-2-(3-(2-(1-(2-((6-(trifluoromethyl)pyrimidin-4-yl)oxy)acetyl)piperidin-4-yl)thiazol-4-yl)-4,5-dihydroisoxazol-5-yl)phenyl methanesulfonate] | ≥ 70 | ≥ 70 |
| O=C(COc1nccnc1C(F)(F)F)N1CCC(c2csc(C3=NOC(c4c(Cl)cc(Cl)cc4Cl)C3)n2)CC1 (centres unmarked) [Compound 8, 1-(4-(2-(5-(2,4,6-trichlorophenyl)-4,5-dihydroisoxazol-3-yl)thiazol-4-yl)piperidin-1-yl)-2-((3-(trifluoromethyl)pyrazin-2-yl)oxy)ethan-1-one] | ≥ 70 | ≥ 70 |
| O=C(COc1cc(C(F)(F)F)ncn1)N1CCC(c2nc(C3=NOC(c4c(F)cccc4Cl)C3)cs2)CC1 (centres unmarked) [Compound 9, 1-(4-(4-(5-(2-chloro-6-fluorophenyl)-4,5-dihydroisoxazol-3-yl)thiazol-2-yl)piperidin-1-yl)-2-((6-(trifluoromethyl)pyrimidin-4-yl)oxy)ethan-1-one] | ≥ 70 | ≥ 70 |
| O=C(COc1nccnc1C(F)(F)F)N1CCC(c2csc(C3=NOC(c4c(Cl)cccc4Cl)C3)n2)CC1 (centres unmarked) [Compound 13, 1-(4-(2-(5-(2,6-dichlorophenyl)-4,5-dihydroisoxazol-3-yl)thiazol-4-yl)piperidin-1-yl)-2-((3-(trifluoromethyl)pyrazin-2-yl)oxy)ethan-1-one] | ≥ 70 | ≥ 70 |
| O=C(COc1cc(C(F)(F)F)ncn1)N1CCC(c2nc(C3=NOC(c4c(Cl)cccc4Cl)C3)cs2)CC1 (centres unmarked) [Compound 14, 1-(4-(4-(5-(2,6-dichlorophenyl)-4,5-dihydroisoxazol-3-yl)thiazol-2-yl)piperidin-1-yl)-2-((6-(trifluoromethyl)pyrimidin-4-yl)oxy)ethan-1-one] | ≥ 70 | ≥ 70 |
| O=C(COc1ccnc(C(F)(F)F)n1)N1CCC(c2nc(C3=NOC(c4c(F)cccc4Br)C3)cs2)CC1 (centres unmarked) [Compound 15, 1-(4-(4-(5-(2-bromo-6-fluorophenyl)-4,5-dihydroisoxazol-3-yl)thiazol-2-yl)piperidin-1-yl)-2-((2-(trifluoromethyl)pyrimidin-4-yl)oxy)ethan-1-one] | ≥ 70 | ≥ 70 |
| O=C(COc1ccnc(C(F)(F)F)n1)N1CCC(c2nc(C3=NOC(c4c(Cl)cccc4Cl)C3)cs2)CC1 (centres unmarked) [Compound 16, 1-(4-(4-(5-(2,6-dichlorophenyl)-4,5-dihydroisoxazol-3-yl)thiazol-2-yl)piperidin-1-yl)-2-((2-(trifluoromethyl)pyrimidin-4-yl)oxy)ethan-1-one] | ≥ 70 | ≥ 70 |
| O=C(COc1ccnc(C(F)(F)F)n1)N1CCC(c2nc(C3=NOC(c4c(F)cccc4F)C3)cs2)CC1 (centres unmarked) [Compound 17, 1-(4-(4-(5-(2,6-difluorophenyl)-4,5-dihydroisoxazol-3-yl)thiazol-2-yl)piperidin-1-yl)-2-((2-(trifluoromethyl)pyrimidin-4-yl)oxy)ethan-1-one] | ≥ 70 | ≥ 70 |
| O=C(COc1ccnc(C(F)(F)F)n1)N1CCC(c2nc(C3=NOC(c4c(Cl)cccc4C(F)(F)F)C3)cs2)CC1 (centres unmarked) [Compound 18, 1-(4-(4-(5-(2-chloro-6-(trifluoromethyl)phenyl)-4,5-dihydroisoxazol-3-yl)thiazol-2-yl)piperidin-1-yl)-2-((2-(trifluoromethyl)pyrimidin-4-yl)oxy)ethan-1-one] | ≥ 70 | ≥ 70 |
| COc1ccnc(OCC(=O)N2CCC(c3nc(C4=NOC(c5c(Cl)cc(Cl)cc5Cl)C4)cs3)CC2)n1 (centres unmarked) [Compound 35, 2-((4-methoxypyrimidin-2-yl)oxy)-1-(4-(4-(5-(2,4,6-trichlorophenyl)-4,5-dihydroisoxazol-3-yl)thiazol-2-yl)piperidin-1-yl)ethan-1-one] | ≥ 70 | – |
| CSc1nccnc1OCC(=O)N1CCC(c2nc(C3=NOC(c4c(Cl)ccc(F)c4F)C3)cs2)CC1 (centres unmarked) [Compound 147, 1-(4-(4-(5-(6-chloro-2,3-difluorophenyl)-4,5-dihydroisoxazol-3-yl)thiazol-2-yl)piperidin-1-yl)-2-((3-(methylthio)pyrazin-2-yl)oxy)ethan-1-one] | – | ≥ 70 |
| CSc1nccnc1OCC(=O)N1CCC(c2nc(C3=NOC(c4c(Cl)cccc4Cl)C3)cs2)CC1 (centres unmarked) [Compound 148, 1-(4-(4-(5-(2,6-dichlorophenyl)-4,5-dihydroisoxazol-3-yl)thiazol-2-yl)piperidin-1-yl)-2-((3-(methylthio)pyrazin-2-yl)oxy)ethan-1-one] | – | ≥ 70 |
| CSc1nccnc1OCC(=O)N1CCC(c2nc(C3=NOC(c4cc(Cl)ccc4Cl)C3)cs2)CC1 (centres unmarked) [Compound 149, 1-(4-(4-(5-(2,5-dichlorophenyl)-4,5-dihydroisoxazol-3-yl)thiazol-2-yl)piperidin-1-yl)-2-((3-(methylthio)pyrazin-2-yl)oxy)ethan-1-one] | – | ≥ 70 |
| O=C(CSc1ccc(C(F)(F)F)nn1)N1CCC(c2nc(C3=NOC(c4c(F)cccc4F)C3)cs2)CC1 (centres unmarked) [Compound 150, 1-(4-(4-(5-(2,6-difluorophenyl)-4,5-dihydroisoxazol-3-yl)thiazol-2-yl)piperidin-1-yl)-2-((6-(trifluoromethyl)pyridazin-3-yl)thio)ethan-1-one] | – | ≥ 70 |
| O=C(CSc1ccc(C(F)(F)F)nn1)N1CCC(c2nc(C3=NOC(c4c(F)cccc4Br)C3)cs2)CC1 (centres unmarked) [Compound 151, 1-(4-(4-(5-(2-bromo-6-fluorophenyl)-4,5-dihydroisoxazol-3-yl)thiazol-2-yl)piperidin-1-yl)-2-((6-(trifluoromethyl)pyridazin-3-yl)thio)ethan-1-one] | – | ≥ 70 |
| N#Cc1ccnc(OCC(=O)N2CCC(c3nc(C4=NOC(c5cc(Cl)ccc5Cl)C4)cs3)CC2)n1 (centres unmarked) [Compound 152, 2-(2-(4-(4-(5-(2,5-dichlorophenyl)-4,5-dihydroisoxazol-3-yl)thiazol-2-yl)piperidin-1-yl)-2-oxoethoxy)pyrimidine-4-carbonitrile] | – | ≥ 70 |
| CS(=O)(=O)Oc1ccc(F)c2c1COC(c1csc(C3CCN(C(=O)COc4nccnc4C(F)(F)F)CC3)n1)OC2 (centres unmarked) [Compound 154, 9-fluoro-3-(2-(1-(2-((3-(trifluoromethyl)pyrazin-2-yl)oxy)acetyl)piperidin-4-yl)thiazol-4-yl)-1,5-dihydrobenzo[e][1,3]dioxepin-6-yl methanesulfonate] | – | ≥ 70 |
| CS(=O)(=O)Oc1ccc(F)c2c1COC(c1csc(C3CCN(C(=O)COc4nccnc4Cl)CC3)n1)OC2 (centres unmarked) [Compound 155, 3-(2-(1-(2-((3-chloropyrazin-2-yl)oxy)acetyl)piperidin-4-yl)thiazol-4-yl)-9-fluoro-1,5-dihydrobenzo[e][1,3]dioxepin-6-yl methanesulfonate] | – | ≥ 70 |
| CS(=O)(=O)Oc1ccc(F)c2c1COC(c1csc(C3CCN(C(=O)COc4ccnc(C(F)(F)F)n4)CC3)n1)OC2 (centres unmarked) [Compound 156, 9-fluoro-3-(2-(1-(2-((2-(trifluoromethyl)pyrimidin-4-yl)oxy)acetyl)piperidin-4-yl)thiazol-4-yl)-1,5-dihydrobenzo[e][1,3]dioxepin-6-yl methanesulfonate] | – | ≥ 70 |
| CS(=O)(=O)c1nccnc1OCC(=O)N1CCC(c2nc(C3=NOC(c4c(F)cccc4F)C3)cs2)CC1 (centres unmarked) [Compound 157, 1-(4-(4-(5-(2,6-difluorophenyl)-4,5-dihydroisoxazol-3-yl)thiazol-2-yl)piperidin-1-yl)-2-((3-(methylsulfonyl)pyrazin-2-yl)oxy)ethan-1-one] | – | ≥ 70 |
| CSc1nccnc1OCC(=O)N1CCC(c2nc(C3=NOC(c4c(Cl)cccc4Br)C3)cs2)CC1 (centres unmarked) [Compound 158, 1-(4-(4-(5-(2-bromo-6-chlorophenyl)-4,5-dihydroisoxazol-3-yl)thiazol-2-yl)piperidin-1-yl)-2-((3-(methylthio)pyrazin-2-yl)oxy)ethan-1-one] | – | ≥ 70 |
| CS(=O)(=O)c1nccnc1OCC(=O)N1CCC(c2nc(C3=NOC(c4c(F)cccc4Br)C3)cs2)CC1 (centres unmarked) [Compound 159, 1-(4-(4-(5-(2-bromo-6-fluorophenyl)-4,5-dihydroisoxazol-3-yl)thiazol-2-yl)piperidin-1-yl)-2-((3-(methylsulfonyl)pyrazin-2-yl)oxy)ethan-1-one] | – | ≥ 70 |
| COc1cc(OCC(=O)N2CCC(c3nc(C4=NOC(c5c(Cl)cccc5OS(C)(=O)=O)C4)cs3)CC2)ncn1 (centres unmarked) [Compound 160, 3-chloro-2-(3-(2-(1-(2-((6-methoxypyrimidin-4-yl)oxy)acetyl)piperidin-4-yl)thiazol-4-yl)-4,5-dihydroisoxazol-5-yl)phenyl methanesulfonate] | – | ≥ 70 |
